Assay results as given in patent US5593970A, “Heterocyclic anthracycline analogs” (priority 1994, dated 1997).
Counter-ions that a name gives are not always drawn. Like-named read-outs stand apart in the source and are kept apart here.

What was measured:
Assay in all cases: Microculture tetrazolium assay
Type in all cases: cell-based
HT29 = details: Homo sapiens, HT-29, HT29
SKVLB = details: for IC50: SKVLB; for VLB/OV3: IC50 ratio SKVLB/SKOV3
LOX = test system: LOX
SKOV3 = details: Homo sapiens, SK-OV-3, SKOV3
T47D = details: Homo sapiens

| SMILES | IC50 (HT29; read-out: IC50) [µM] | IC50 (SKVLB; read-out: IC50) [µM] | IC50 (LOX; read-out: IC50) [µM] | IC50 (SKOV3; read-out: IC50) [µM] | IC50 (T47D; read-out: IC50) [µM] | IC50 (SKVLB; listed as BCH1157, read-out: IC50) [µM] | VLB/OV3 (SKVLB) | IC50 (HT29) [µM] | IC50 (SKVLB) [µM] | IC50 (LOX) [µM] | IC50 (SKOV3) [µM] | IC50 (T47D) [µM] | VLB/OV3 (SKVLB; listed as BCH1157) |
| --- | --- | --- | --- | --- | --- | --- | --- | --- | --- | --- | --- | --- | --- |
| CC(=O)Oc1c2c(c(O)c3ccccc13)C(=O)C1=C(COC(C3(C)OCCCO3)C1)C2=O (stereo not drawn) [BCH-1111] | 100 | 56.3 | 98.5 | 100 | 100 |  |  |  |  |  |  |  |  |
| C=CC[C@H]1CC2=C(C(=O)c3cc4ccccc4c(O)c3C2=O)[C@H](O[C@H]2C[C@H](N)[C@H](O)[C@H](C)O2)O1 [BCH-2006, (1'S,1S,3S)-3-(6-hydroxy-1-(2',3',6'-trideoxy-3'-amino-4'-hydroxy-L-lyxohexopyranose)-5,12-dioxo-3,4,5,12-tetrahydroanthraceno-[2,3-c]pyran-3-yl)propene hydrochloride] | 0.41 | 3.73 | 0.484 | 0.882 | 1.92 |  | 4.23 |  |  |  |  |  |  |
| CC[C@@H]1CC2=C(C(=O)c3cc4ccccc4c(O)c3C2=O)[C@@H](O[C@H]2C[C@H](N)[C@H](O)[C@H](C)O2)O1 [BCH-1614, (1'S,1R,3R)-5,12-dioxo-3-ethyl-6-hydroxy-1-(2',3',6'-trideoxy-3'-amino-4'-hydroxy-L-lyxohexopyranose)-3,4,5,12-tetrahydroanthraceno[2,3-c]pyran hydrochloride] |  |  |  |  |  |  | 1.64 | 3.58 | 1.67 | 1.09 | 1.02 | 0.742 |  |
| C[C@@H]1O[C@@H](O[C@H]2O[C@H](C(=O)CO)CC3=C2C(=O)c2cc4ccccc4c(O)c2C3=O)C[C@H](NC(=O)C(F)(F)F)[C@@H]1O [BCH-1175, (1', S,1R,3S)-1,2,3,4,5,12-hexahydro-6-hydroxy-3-hydroxy-aceto-1-N-trifluoroacetyl-L-daunosamine-(2-oxo) naphthacene-5, 12-dione] | > 100 | > 100 | > 100 | > 100 | > 100 |  |  |  |  |  |  |  |  |
| CC(=O)Oc1c2c(c(O)c3ccccc13)C(=O)C1=C(CC(C3(C)OCCCO3)OC1)C2=O (stereo not drawn) [BCH-1110] | 28.9 | 100 | 100 | 100 | 100 |  |  |  |  |  |  |  |  |
| COCOCC(=O)C1CC2=C(CO1)C(=O)c1cc3ccccc3c(O)c1C2=O (stereo not drawn) [BCH-697, 3-(2-methoxymethoxy)aceto-6-hydroxy-1,2,3,4-tetrahydro-(2-oxygen)napthacene-5,12-dione] | 6.04 |  | 12.6 | 15.5 | 13 |  | 0.68 |  | 10.6 |  |  |  |  |
| CC(=O)[C@@H]1Cc2c(O)c3c(c(O)c2[C@@H](O[C@H]2C[C@H](O)[C@H](O)[C@H](C)O2)O1)C(=O)c1ccccc1C3=O [BCH-1624] | 100 | 100 | 100 | 85 | 100 |  |  |  |  |  |  |  |  |
| CC(=O)C1CC2=C(C(=O)c3cc4ccccc4c(O)c3C2=O)C(OC2CC(N=[N+]=[N-])C(I)C(C)O2)O1 (stereo not drawn) [BCH-1157] | 13 |  | > 100 | 14.7 | 37.6 | 21 |  |  |  |  |  |  | 1.43 |
| CC(=O)[C@@H]1Cc2c(O)c3c(c(O)c2[C@@H](O[C@H]2O[C@H](CO)[C@@H](O)[C@H](O)[C@H]2NC(=O)N(CCCl)N=O)O1)C(=O)c1ccccc1C3=O [BCH-1999, (1'R, 1R,3S)-3-aceto-5,12-dihydroxy-1(2-deoxy-2-chloroethylnitrosoureido D-glucopyranose)-6,11-dioxo-3,4,6,11-tetrahydro-1H-anthra[2,3-c]pyran] |  |  |  |  |  |  |  | 8.06 | 1 | 4.97 | < 7.74 | 20 |  |
| CC(=O)[C@@H]1CC2=C(C(=O)c3cc4ccccc4c(O)c3C2=O)[C@@H](O[C@H]2C[C@H](O)[C@H](O)[C@H](C)O2)O1 [BCH-1124, (1'S,1R,3S)-Methyl-[6-hydroxy-1-(2',3',6'-trideoxy-3',4'-dihydroxy-L-lyxohexopyranose)-5,12-dioxo-2,3,5,12-tetrahydroxyanthraceno(2,3-C)pyran-3-yl]ketone] | 1.46 | 2.17 |  | 4.98 | 6.05 |  | 0.44 |  |  | 1.88 |  |  |  |
| C[C@@H]1O[C@@H](O[C@@H]2O[C@@H](C(=O)COC(=O)C(C)(C)C)CC3=C2C(=O)c2cc4ccccc4c(O)c2C3=O)C[C@H](NC(=O)C(F)(F)F)[C@@H]1O [BCH-1137, (1'S,1S,3R)-1,2,3,4,5,12-hexahydro-6-hydroxy-3-trimethylacetoxyaceto-1-N-trifluoroacetyl-L-daunosamine-(2-oxo) naphthacene-5,12-dione] | 6.37 | 14.1 | 8.88 | 13.7 | 8.4 |  | 1.03 |  |  |  |  |  |  |
| C[C@@H]1O[C@@H](O[C@@H]2O[C@@H](C3(CO)OCCCO3)CC3=C2C(=O)c2cc4ccccc4c(O)c2C3=O)C[C@H](N)[C@@H]1O [BCH-1154] | 8.55 | 28.4 | 3.74 | 8.94 | 14.2 |  | 3.18 |  |  |  |  |  |  |
| C[C@@H]1O[C@@H](O[C@H]2O[C@H](S(=O)(=O)c3ccccc3)CC3=C2C(=O)c2cc4ccccc4c(O)c2C3=O)C[C@H](NC(=O)C(F)(F)F)[C@@H]1O [BCH-2025] | 0.644 | 6.2 | 1.11 |  | 3.34 |  | 3.15 |  |  |  | 1.97 |  |  |
| CC(=O)C1Cc2c(O)c3c(c(O)c2C(O[C@H]2C[C@H](N=[N+]=[N-])[C@H](I)[C@H](C)O2)O1)C(=O)c1ccccc1C3=O (stereo partly drawn) [BCH-1156] | 36.2 | 100 | 100 | 26.2 | 100 |  |  |  |  |  |  |  |  |

More lines, main results first:

| IC50 (HT29; read-out: IC50) [µM] | IC50 (SKVLB; read-out: IC50) [µM] | IC50 (LOX; read-out: IC50) [µM] | IC50 (SKOV3; read-out: IC50) [µM] | IC50 (T47D; read-out: IC50) [µM] | IC50 (SKVLB; listed as BCH1157, read-out: IC50) [µM] | SMILES | VLB/OV3 (SKVLB) | IC50 (HT29) [µM] | IC50 (SKVLB) [µM] | IC50 (LOX) [µM] | IC50 (SKOV3) [µM] | IC50 (T47D) [µM] | VLB/OV3 (SKVLB; listed as BCH1157) |
| --- | --- | --- | --- | --- | --- | --- | --- | --- | --- | --- | --- | --- | --- |
| 0.436 | 1.3 | 1.22 | 1.41 | 3.84 |  | CC(=O)[C@H]1CC2=C(C(=O)c3cc4ccccc4c(O)c3C2=O)[C@H](O[C@H]2C[C@H](O)[C@H](O)[C@H](C)O2)O1 [BCH-1123, (1'S,1S,3R)-Methyl-[6-hydroxy-1-(2',3',6'-trideoxy-3',4'-dihydroxy-L-lyxohexopyranose)-5,12-dioxo-3,4,5,12-tetrahydroanthraceno(2,3-C)pyran-3-yl]ketone] | 0.92 |  |  |  |  |  |  |
| 6.28 | 2.02 | 2.81 | 2.29 | 4.97 |  | CC(=O)C1CC2=C(C(=O)c3cc4ccccc4c(O)c3C2=O)C(OC[C@@H]2COC(C)(C)O2)S1 (stereo partly drawn) [BCH-1660] | 0.88 |  |  |  |  |  |  |
| 0.13 | 0.67 | 0.0597 | 0.0934 | 0.345 |  | CC[C@@H]1Cc2c(O)c3c(c(O)c2[C@@H](O[C@H]2C[C@H](N)[C@H](O)[C@H](C)O2)O1)C(=O)c1ccccc1C3=O [BCH-2016, (1'S,1R, 3R)-3-ethyl-5,12-dihydroxy-1-(2',3',6'-trideoxy-3'-amino-L-lyxohexopyranose)-1,2,3,4-tetrahydro-(2-oxygen)-naphthacene-6,11-dione-hydrochloride] | 7.17 |  |  |  |  |  |  |
| 2.8 | 2.31 | 100 | 1.5 | 3.83 |  | CC1(C2CC3=C(CO2)C(=O)c2c(cc4ccccc4c2O)C3=O)OCCCO1 (stereo not drawn) [BCH-1108] | 1.5 |  |  |  |  |  |  |
| 7.6 | 21.3 | 31.3 | 26.1 | 11.1 |  | CC(=O)C1Cc2c(O)c3c(c(O)c2C(O)O1)C(=O)c1ccccc1C3=O (stereo not drawn) [BCH-1116] | 0.82 |  |  |  |  |  |  |
| 1.12 | 5.82 | 0.398 | 0.865 | 0.727 |  | COCC1(COC)CC2=C(C(=O)c3cc4ccccc4c(O)c3C2=O)[C@H](O[C@H]2C[C@H](NC(=O)C(F)(F)F)[C@H](O)[C@H](C)O2)O1 [BCH-1698, (1'S,1S)-5,12-dioxo-6-hydroxy-3,3-bismethoxymethyl-1-(2',3',6'-trideoxy-3'-trifluoroacetamido-L-lyxohexopyranose)-3,4,5,12-tetrahydroanthraceno-[2,3-C]pyran] | 6.73 |  |  |  |  |  |  |
| 0.823 | 2.71 | 1.1 | 1.1 | 1.21 |  | COC[C@H]1CC2=C(C(=O)c3cc4ccccc4c(O)c3C2=O)[C@H](O[C@H]2C[C@H](NC(=O)C(F)(F)F)[C@H](O)[C@H](C)O2)O1 [BCH-1696, (1'S,1S,3R)-5,12-dioxo-6-hydroxy-3-methoxymethyl-1-(2',3',6'-trideoxy-3'-trifluoroacetamido-L-lyxohexopyranose)-3,4,5,12-tetrahydroanthraceno-[2,3-C]pyran] | 2.46 |  |  |  |  |  |  |
| 6.38 | 10.3 | 1.77 | 4.36 | 5.72 |  | C[C@@H]1O[C@@H](O[C@H]2O[C@H](COc3ccccc3)CC3=C2C(=O)c2cc4ccccc4c(O)c2C3=O)C[C@H](NC(=O)C(F)(F)F)[C@@H]1O (mixture of isomers) [BCH-2048, (1'S,1R,3S) and (1'S,1S,3R)-5,12-dioxo-6-hydroxy-3-phenyloxymethyl-1-(2',3',6'-trideoxy-3'-trifluoroacetamido-L-lyxohexopyranose)-3,4,5,12-tetrahydroanthraceno-[2,3-c]-pyran] | 2.36 |  |  |  |  |  |  |
| 2.81 | 7.32 | 4.3 | 1.89 | 2.16 |  | C=CC1CC2=C(C(=O)c3cc4ccccc4c(O)c3C2=O)C(O[C@H]2C[C@H](N)[C@H](O)[C@H](C)O2)O1 (stereo partly drawn) [BCH-1611] | 3.87 |  |  |  |  |  |  |
| 3.04 | 2.66 | 3.59 | 2.82 | 5.12 |  | CC(=O)C1CC2=C(C(=O)c3cc4ccccc4c(O)c3C2=O)C(OC[C@@H]2COC(C)(C)O2)O1 (stereo partly drawn) [BCH-1661] | 0.94 |  |  |  |  |  |  |
